Laboratory results: the supplement of paper PMC4862054

Columns and labels:
Conditions in all cases: 72 h
[1] = test system: CAL-85-1
Method in brief: (§1)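 Seeding of breast cancer cell lines (20 µl suspension) was done into 384-well plates pre-loaded with compound at 5 concentrations, 10-fold apart, covering a compound-specific 10,000-fold range. The plates were incubated for 72 h, read for CellTox Green fluorescence (485/520 nm), and then read for CellTiter-Glo luminescence after 10 min at room temperature. Every plate was normalised to 0.1 % DMSO and a positive kill control. Curve fitting gave the EC50, censored at the top concentration.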

[2] = test system: DU-4475
Method in brief: as §1

[3] = test system: MFM-223
Method in brief: as §1

[4] = test system: BT-549
Method in brief: as §1

[5] = test system: MDA-MB-453
Method in brief: as §1

[6] = test system: BT-474
Method in brief: as §1

[7] = test system: MDA-MB-468
Method in brief: as §1

[8] = test system: SK-BR-3
Method in brief: as §1

[9] = test system: MDA-MB-436
Method in brief: as §1

[10] = test system: MDA-MB-231
Method in brief: as §1

[11] = test system: CAL-148
Method in brief: as §1

[12] = test system: HCC1143
Method in brief: as §1

[13] = test system: CAL-51
Method in brief: as §1

[14] = test system: HCC1937
Method in brief: as §1

[15] = test system: CAL-51; remark: listed apart in the source
Description: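 Drug sensitivity and resistance testing (DSRT) of breast cancer cell lines in 384-well plates, 5 concentrations in 10-fold dilutions over a compound-specific 10,000-fold range. After 72 h, cytotoxicity was read by CellTox Green fluorescence and viability by CellTiter-Glo luminescence (multiplexed), normalised to DMSO and benzethonium chloride controls. EC50 is the inflection point of the fitted dose-response curve (bottom asymptote free, so it can be relative for partial curves) and is censored at the highest tested concentration. Rows with DSS 0 (no meaningful response) were excluded.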

[16] = test system: CAL-120
Method in brief: as §1

[17] = test system: MCF-10A
Method in brief: as §1

[18] = test system: Hs578T
Method in brief: as §1

[19] = test system: HDQ-P1
Method in brief: as §1

| EC50, CellTiter-Glo [4] [nM] | EC50, CellTiter-Glo [5] [nM] | EC50, CellTiter-Glo [6] [nM] | EC50, CellTiter-Glo [7] [nM] | EC50, CellTiter-Glo [8] [nM] | EC50, CellTiter-Glo [9] [nM] | EC50, CellTiter-Glo [10] [nM] | EC50, CellTiter-Glo [12] [nM] | EC50, CellTiter-Glo [14] [nM] | Structure (SMILES) | EC50, CellTiter-Glo [1] [nM] | EC50, CellTiter-Glo [2] [nM] | EC50, CellTiter-Glo [3] [nM] | EC50, CellTiter-Glo [11] [nM] | EC50, CellTiter-Glo [13] [nM] | EC50, CellTox Green [15] [nM] | EC50, CellTiter-Glo [16] [nM] | EC50, CellTiter-Glo [17] [nM] | EC50, CellTiter-Glo [18] [nM] | EC50, CellTiter-Glo [19] [nM] |
| --- | --- | --- | --- | --- | --- | --- | --- | --- | --- | --- | --- | --- | --- | --- | --- | --- | --- | --- | --- |
| 3210 | 2690 | 4570 | 2980 | 2750 | 5170 | 3820 |  |  | CCCc1cc(C)[nH]c(=O)c1CNC(=O)c1cc(-c2ccnc(N3CCN(C)CC3)c2)cc2c1cnn2C(C)C [GSK343] | 7160 | 2380 | 7400 | 1860 |  |  |  |  |  |  |
| 3340 | 1910 | > 10000 | 6760 | 3050 |  |  |  |  | CC(C)(C)Cn1c(N)nc2ccc(-c3[nH]c(C(C)(C)C)nc3-c3ccc(F)cc3)nc21 |  |  | 3110 |  |  |  | > 10000 | 4590 |  |  |
| 137 | 472 |  |  | 280 |  |  |  |  | NC1(c2ccc(-c3nc4ccn5c(=O)[nH]nc5c4cc3-c3ccccc3)cc2)CCC1 [MK-2206] |  | > 1000 | 436 | 279 |  |  |  |  | > 1000 |  |
|  |  | 722 | 6610 |  | 636 |  |  |  | Cc1c(C(=O)Nc2ccc(N3C[C@@H](C)O[C@@H](C)C3)nc2)cccc1-c1ccc(OC(F)(F)F)cc1 [Erismodegib] |  |  |  |  | 41 |  |  |  |  |  |
|  |  |  |  | 1460 |  |  |  |  | CN1CCN(c2nc(C3=C(c4c[nH]c5ccccc45)C(=O)NC3=O)c3ccccc3n2)CC1 [Sotrastaurin] |  | 6790 |  |  |  |  |  |  |  | > 10000 |

More lines, now with the values behind:

| Structure (SMILES) | EC50, CellTiter-Glo [4] [nM] | EC50, CellTiter-Glo [5] [nM] | EC50, CellTiter-Glo [6] [nM] | EC50, CellTiter-Glo [7] [nM] | EC50, CellTiter-Glo [8] [nM] | EC50, CellTiter-Glo [9] [nM] | EC50, CellTiter-Glo [10] [nM] | EC50, CellTiter-Glo [12] [nM] | EC50, CellTiter-Glo [14] [nM] | EC50, CellTiter-Glo [1] [nM] | EC50, CellTiter-Glo [2] [nM] | EC50, CellTiter-Glo [3] [nM] | EC50, CellTiter-Glo [11] [nM] | EC50, CellTiter-Glo [13] [nM] | EC50, CellTox Green [15] [nM] | EC50, CellTiter-Glo [16] [nM] | EC50, CellTiter-Glo [17] [nM] | EC50, CellTiter-Glo [18] [nM] | EC50, CellTiter-Glo [19] [nM] |
| --- | --- | --- | --- | --- | --- | --- | --- | --- | --- | --- | --- | --- | --- | --- | --- | --- | --- | --- | --- |
| Cc1c(N)nc([C@H](CC(N)=O)NC[C@H](N)C(N)=O)nc1C(=O)N[C@H](C(=O)N[C@H](C)[C@@H](O)[C@H](C)C(=O)N[C@H](C(=O)NCCc1nc(-c2nc(C(=O)NCCC[S+](C)C)cs2)cs1)[C@@H](C)O)[C@@H](OC1OC(CO)C(O)C(O)C1OC1OC(CO)C(O)C(OC(N)=O)C1O)c1cnc[nH]1 (stereo not given in full) [Bleomycin] | 2360 |  |  |  | 1830 | 5920 |  | 9670 | 8710 |  |  |  | 911 | 49.9 | 20.5 |  |  |  |  |
| C[C@]12C=CC(=O)C=C1CC[C@@H]1[C@@H]2C(=O)C[C@@]2(C)[C@H]1CC[C@]2(O)C(=O)CO [Prednisone] |  |  |  |  |  |  |  |  |  |  |  |  |  |  |  | 8390 |  |  |  |
| CCCCCOC(=O)Nc1nc(=O)n([C@@H]2O[C@H](C)[C@@H](O)[C@H]2O)cc1F [Capecitabine] |  |  |  |  |  | 5970 |  |  |  |  |  |  |  |  |  |  |  |  |  |
| C[C@@H]1C[C@H]2[C@@H]3CCC4=CC(=O)C=C[C@]4(C)[C@@]3(F)[C@@H](O)C[C@]2(C)[C@@]1(O)C(=O)CO [Dexamethasone] |  | 379 |  |  |  |  |  |  |  |  |  |  |  |  |  | 7.49 |  |  |  |
| CC(C)NC[C@@H](C(=O)N1CCN(c2ncnc3c2[C@H](C)C[C@H]3O)CC1)c1ccc(Cl)cc1 [GDC-0068] | 600 | 783 | > 10000 | 656 | 814 | > 10000 |  | 1590 | 2350 | 6480 | 2070 | 139 | 177 | 2780 | 1150 | 819 | 1150 | 1150 | 271 |
| CCN(CC)CCOc1ccc(C(=C(Cl)c2ccccc2)c2ccccc2)cc1 [Clomifene] | 1980 | 2910 | 3940 |  | 6000 |  | 3540 |  | 2900 | 2390 | 3460 | 6660 |  |  |  |  | 9400 | 2760 |  |
| CN1CCc2c(c3ccccc3n2Cc2ccc(C(=O)NO)cc2)C1 [Tubastatin A] | 7980 |  |  |  | 8820 |  |  | 2350 | 1600 | 6160 |  |  |  | 297 | 2220 |  |  |  |  |
| CC/C(=C(\c1ccccc1)c1ccc(OCCN(C)C)cc1)c1ccccc1 [Tamoxifen] |  | 2560 |  |  | > 10000 |  |  |  | > 10000 |  |  | 3370 |  | 233 |  | > 10000 |  |  |  |
| N[C@@H](Cc1ccc(N(CCCl)CCCl)cc1)C(=O)O [Melphalan] | 758 | 213 | 313 | 203 | 247 | 501 | 237 | 739 | 235 | 444 | 322 | 310 | 268 | 182 | 194 | 1220 | 424 | 518 | 297 |
| COc1cc2c(Oc3ccc(NC(=O)C4(C(=O)Nc5ccc(F)cc5)CC4)cc3F)ccnc2cc1OCCCN1CCOCC1 [Foretinib] |  |  | 145 | 772 |  | > 1000 | 600 | 317 |  |  |  | 111 | 610 | 490 | 251 | 179 | 854 |  |  |
| CCc1cnn2c(NCc3ccc[n+]([O-])c3)cc(N3CCCC[C@H]3CCO)nc12 [Dinaciclib] | 13.9 | 26.1 | 12.9 | 23.7 | 6.99 | 9 | 5.9 | 12 | 21.9 | 5.42 | 20.6 | 21.2 | 26.9 | 12.8 | 13 | 17.9 | 45.8 | 16 | 12.3 |
| CO[C@H](C(=O)[C@@H](O)[C@@H](C)O)[C@@H]1Cc2cc3cc(O[C@H]4C[C@@H](O[C@@H]5C[C@@H](O)[C@H](O)[C@@H](C)O5)[C@H](O)[C@@H](C)O4)c(C)c(O)c3c(O)c2C(=O)[C@H]1O[C@H]1C[C@@H](O[C@@H]2C[C@@H](O)[C@@H](O[C@@H]3C[C@](C)(O)[C@H](O)[C@@H](C)O3)[C@@H](C)O2)[C@H](O)[C@@H](C)O1 [Plicamycin] | 2340 | 5310 | 2440 | 2510 | 4530 | 6150 | 3020 | 3910 | 4190 | 4270 | 3220 | 7030 | 4000 | 240 | 2120 | 6760 | 4120 | 4220 | 5650 |
